Earlier results in patent US8062666B2 (priority 2001, dated 2011).
Read-outs that look alike come from different tables or passages of the source.

What was measured:
[1] = coated spheroid extended release dosage form of WO 99/22724, dissolution specification
[2] = 0.2 M sodium chloride

Compound: COc1ccc(C(CN(C)C)C2(O)CCCCC2)cc1.Cl (racemic) [Venlafaxine hydrochloride, (R/S)-1-[2-(dimethylamino)-1-(4-methoxyphenyl)-ethyl]cyclohexanol hydrochloride]
- time at which peak blood plasma levels appeared (conventional release dosage forms (tablets)): 2 to 4 h
- time for which plasma levels rose after administration (time to peak) (extended release dosage forms): five to eight
- Average % venlafaxine HCL release ([1]; 2 hrs): <30%
- Average % venlafaxine HCL release ([1]; 4 hrs): 30-55%
- Average % venlafaxine HCL release ([1]; 8 hrs): 55-80%
- Average % venlafaxine HCL release ([1]; 12 hrs): 65-90%
- Average % venlafaxine HCL release ([1]; 24 hrs): >80%
- octanol:water partition coefficient [2]: 0.43
